In patent US9809623B2, “α4β7 peptide monomer and dimer antagonists” (Protagonist Therapeutics, Inc., priority 2014, dated 2017):
Like-named read-outs stand apart in the source and are kept apart here. Numbered stars: 1 amine (or outer) side, 2 acyl side, 3 side chain; on linkers, the order of the positions; unused ones are H or OH. Bridge positions count the residues as written; N and C are the ends. Square brackets hold non-standard residues; d marks the D form. Peptide text beside a SMILES is read from it. I, II: the chains in the order shown. Phe(4-tBu) = CC(C)(C)c1ccc(C[C@H](N)C(=O)O)cc1; X3 = O=C(COCC(=O)NCCC(=O)[*:2])NCCC(=O)[*:1]; 2Nal = N[C@@H](Cc1ccc2ccccc2c1)C(=O)O; Diglycolyl = O=C(COCC(=O)[*:2])[*:1]; NMeR = CN[C@@H](CCCNC(=N)N)C(=O)O; hPhe = N[C@@H](CCc1ccccc1)C(=O)O; Aic = NC1(C(=O)O)Cc2ccccc2C1; Pen = CC(C)(S)[C@H](N)C(=O)O; βAla = NCCC(=O)O

What was measured:
[1] = target: α4β7 (Homo sapiens, UniProt P13612+P26010); assay: α4β7-MAdCAM Cell Adhesion Assay (RPMI 8866 human cells); format: cell-based; set-up: host or cells: RPMI 8866 human B lymphoblastoid cells; details: Table 3-B, Potency (α4β7); range classes; read-out: α4β7 cell (Hu) IC50
Sequence of α4β7 (P13612 34-1032): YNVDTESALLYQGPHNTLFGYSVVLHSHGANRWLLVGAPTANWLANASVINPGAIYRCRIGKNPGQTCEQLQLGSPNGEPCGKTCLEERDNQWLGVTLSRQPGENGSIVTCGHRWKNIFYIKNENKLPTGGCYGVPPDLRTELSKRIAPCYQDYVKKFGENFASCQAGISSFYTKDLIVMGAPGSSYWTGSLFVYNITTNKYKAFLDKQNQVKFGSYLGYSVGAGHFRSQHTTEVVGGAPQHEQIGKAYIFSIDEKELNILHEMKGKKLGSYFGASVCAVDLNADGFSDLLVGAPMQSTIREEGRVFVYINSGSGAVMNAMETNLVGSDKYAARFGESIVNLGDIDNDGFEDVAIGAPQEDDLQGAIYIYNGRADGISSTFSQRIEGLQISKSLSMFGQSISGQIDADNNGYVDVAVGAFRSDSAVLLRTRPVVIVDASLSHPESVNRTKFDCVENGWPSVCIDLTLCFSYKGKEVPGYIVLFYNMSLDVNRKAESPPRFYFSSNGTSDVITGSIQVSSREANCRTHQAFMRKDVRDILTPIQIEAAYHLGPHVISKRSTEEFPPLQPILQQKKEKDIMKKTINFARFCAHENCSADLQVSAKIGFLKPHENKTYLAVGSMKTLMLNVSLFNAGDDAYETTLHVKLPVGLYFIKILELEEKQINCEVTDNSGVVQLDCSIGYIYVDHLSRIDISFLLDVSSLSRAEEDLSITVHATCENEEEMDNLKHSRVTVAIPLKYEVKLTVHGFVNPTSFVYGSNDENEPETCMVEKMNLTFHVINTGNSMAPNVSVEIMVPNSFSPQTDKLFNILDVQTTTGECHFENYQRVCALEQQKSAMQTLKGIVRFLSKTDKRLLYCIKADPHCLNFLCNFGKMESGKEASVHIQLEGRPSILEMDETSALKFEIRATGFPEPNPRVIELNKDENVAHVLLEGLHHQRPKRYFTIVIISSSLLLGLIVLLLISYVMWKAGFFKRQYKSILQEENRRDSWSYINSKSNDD
Sequence of α4β7 (P26010 20-798): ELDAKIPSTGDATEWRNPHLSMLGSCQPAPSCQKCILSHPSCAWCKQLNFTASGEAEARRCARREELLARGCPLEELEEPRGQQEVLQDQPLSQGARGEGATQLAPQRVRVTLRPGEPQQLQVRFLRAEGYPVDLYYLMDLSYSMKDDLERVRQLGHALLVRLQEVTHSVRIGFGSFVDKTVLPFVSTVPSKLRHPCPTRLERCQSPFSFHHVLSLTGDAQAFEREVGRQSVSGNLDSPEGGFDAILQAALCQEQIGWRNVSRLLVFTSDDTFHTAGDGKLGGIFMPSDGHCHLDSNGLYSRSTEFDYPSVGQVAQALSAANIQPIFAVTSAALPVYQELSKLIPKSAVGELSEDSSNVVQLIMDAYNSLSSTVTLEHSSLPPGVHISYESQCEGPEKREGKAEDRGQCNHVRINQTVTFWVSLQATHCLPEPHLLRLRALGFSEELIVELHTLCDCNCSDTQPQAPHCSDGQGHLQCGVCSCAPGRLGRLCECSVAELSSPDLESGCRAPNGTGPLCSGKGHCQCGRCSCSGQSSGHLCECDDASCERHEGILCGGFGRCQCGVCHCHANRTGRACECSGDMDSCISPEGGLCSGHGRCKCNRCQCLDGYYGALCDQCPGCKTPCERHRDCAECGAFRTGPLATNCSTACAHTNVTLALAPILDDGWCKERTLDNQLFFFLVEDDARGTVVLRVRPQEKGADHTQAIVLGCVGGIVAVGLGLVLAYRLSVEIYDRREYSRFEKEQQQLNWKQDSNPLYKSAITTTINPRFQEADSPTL
Method in brief: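 Washed RPMI 8866 cells (200,000/well) in DMEM with 0.1% BSA, 10 mM HEPES pH 7, 1 mM MnCl2 adhered to rh MAdCAM-1/Fc-coated wells with serially diluted peptides, 30-45 min at 37 °C. After three washes, bound cells quantified by MTT, A570, cell-free background subtracted for dose response.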

[2] = Simulated Intestinal Fluid (SIF) Stability Assay; format: in vitro ADME, porcine; details: pig, pH 6.5, Table 3-B, > means experiment was stopped at that time and half life was not reached, read-out: Stabilty SIF t1/2
Method in brief: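 Peptides (22 μM final) incubated at 37 °C in FASSIF (pH 6.5) with 1% porcine pancreatin; aliquots quenched at various times and analyzed by LC-MS/MS against internal standard. Half-life from first-order exponential decay fit of percent remaining.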

[3] = target: T1, rh integrin α4β7 (Homo sapiens, UniProt P13612+P26010); assay: α4β7-MAdCAM Competition ELISA; format: binding; details: Table 3-B, Potency (α4β7); range classes; read-out: α4β7 ELISA IC50
T1 construct: purchased R&D Systems 5397-A30
T1 sequence (P13612 34-977 limits assumed): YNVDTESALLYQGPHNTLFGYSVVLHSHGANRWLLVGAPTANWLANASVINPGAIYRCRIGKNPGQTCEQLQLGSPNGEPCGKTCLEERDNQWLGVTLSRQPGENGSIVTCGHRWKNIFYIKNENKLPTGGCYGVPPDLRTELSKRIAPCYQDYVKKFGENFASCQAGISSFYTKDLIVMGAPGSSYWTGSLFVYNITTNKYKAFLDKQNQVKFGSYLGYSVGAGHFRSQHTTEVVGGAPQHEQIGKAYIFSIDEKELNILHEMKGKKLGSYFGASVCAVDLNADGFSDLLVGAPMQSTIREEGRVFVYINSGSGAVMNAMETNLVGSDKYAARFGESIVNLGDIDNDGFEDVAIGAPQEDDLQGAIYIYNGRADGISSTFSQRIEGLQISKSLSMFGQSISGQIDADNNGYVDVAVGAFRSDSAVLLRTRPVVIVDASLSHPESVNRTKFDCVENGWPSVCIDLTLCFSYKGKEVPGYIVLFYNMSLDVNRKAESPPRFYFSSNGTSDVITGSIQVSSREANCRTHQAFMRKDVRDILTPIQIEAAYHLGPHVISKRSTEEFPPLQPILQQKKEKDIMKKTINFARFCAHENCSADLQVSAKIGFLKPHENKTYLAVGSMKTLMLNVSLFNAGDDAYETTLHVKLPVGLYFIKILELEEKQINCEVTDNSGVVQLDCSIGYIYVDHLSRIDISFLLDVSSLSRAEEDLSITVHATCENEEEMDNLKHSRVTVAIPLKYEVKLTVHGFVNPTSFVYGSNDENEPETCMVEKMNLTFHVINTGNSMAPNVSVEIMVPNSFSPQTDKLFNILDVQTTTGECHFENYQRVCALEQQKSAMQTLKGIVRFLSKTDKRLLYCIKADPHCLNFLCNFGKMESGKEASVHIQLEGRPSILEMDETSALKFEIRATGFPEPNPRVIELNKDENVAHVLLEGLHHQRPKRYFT
T1 sequence (P26010 20-723 limits assumed): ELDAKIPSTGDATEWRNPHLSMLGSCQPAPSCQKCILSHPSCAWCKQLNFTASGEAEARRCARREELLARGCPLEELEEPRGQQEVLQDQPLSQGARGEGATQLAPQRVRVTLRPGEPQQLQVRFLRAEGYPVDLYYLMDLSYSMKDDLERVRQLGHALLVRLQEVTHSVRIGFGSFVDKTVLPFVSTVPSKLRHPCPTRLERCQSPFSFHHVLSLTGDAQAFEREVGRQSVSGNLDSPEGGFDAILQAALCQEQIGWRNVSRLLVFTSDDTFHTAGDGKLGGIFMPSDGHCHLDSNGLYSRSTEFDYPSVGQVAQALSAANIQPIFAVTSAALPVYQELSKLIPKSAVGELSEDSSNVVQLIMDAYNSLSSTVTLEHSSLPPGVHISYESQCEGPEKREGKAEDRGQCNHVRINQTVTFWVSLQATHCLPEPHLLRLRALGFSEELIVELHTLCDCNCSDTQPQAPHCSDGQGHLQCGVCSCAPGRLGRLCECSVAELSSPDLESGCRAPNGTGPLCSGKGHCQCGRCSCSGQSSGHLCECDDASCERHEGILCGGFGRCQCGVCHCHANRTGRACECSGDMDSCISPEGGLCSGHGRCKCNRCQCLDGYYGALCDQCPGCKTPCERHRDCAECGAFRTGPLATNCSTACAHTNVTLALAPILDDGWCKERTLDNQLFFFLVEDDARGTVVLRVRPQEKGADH
Experimental: A nickel coated plate (Pierce #15442) was coated with rh integrin α4β7 (R&D Systems #5397-A30) at 800 ng/well and incubated at room temperature with shaking for 1 hr. The solution was then removed by shaking and blocked with assay buffer (50 mM Tris-HCl pH7.6, 150 mM NaCl, 1 mM MnCl2 or MgCl2, 0.05% Tween-20 and 0.5% BSA) at 250 ul/well. The plate was then incubated at room temperature for 1 hr. Each well was washed 3 times with wash buffer (50 mM Tris-HCl pH7.6, 100 mM NaCl, 1 mM MnCl2 or MgCl2, 0.05% Tween-20). To each well was added 25 ul of a serial dilution (3-fold dilutions in assay buffer) of peptide starting at 20 μM. 25 ul of recombinant human MAdCAM-1 (R&D Systems #6056-MC) was then added to each well at a fixed concentration 20 nM. The final starting peptide concentration was 10 μM, and the final MAdCAM-1 concentration was 10 nM. The plates were then incubated at room temperature for 1 hr to reach binding equilibrium. The wells were then washed three times with wash buffer. 50 ul of mouse anti-human IgG1-HRP (Invitrogen # A10648) diluted in 1:2000 in assay buffer was then added to each well. The wells were incubated at room temperature for 45 min with shaking. The wells were then washed 3 times with wash buffer. 100 ul of 3,3′,5,5′-Tetramethylbenzidine (TMB) were then added to each well and closely observe during development time. The reaction was stopped with 2N H2SO4 and absorbance was read at 450 nm.
TMB is a chromogenic substrate suitable for use in ELISA procedures, which utilize horseradish peroxidase conjugates. This substrate produces a soluble end product that is blue in color and can be read spectrophotometrically at 370 or 655 nm. The reaction maybe stopped with 2 M H2S04, resulting in a yellow solution that is read at 450 nm. Each tablet contains 1 mg of TMB substrate. To prepare TMB Substrate Solution, dissolve one 3,3′,5,5′-tetramethylbenzidine tablet in 1 ml of DMSO and add to 9 ml of 0.05 M Phosphate-Citrate Buffer, pH 5.0. Add 2 μl of fresh 30% hydrogen peroxide (Product No. H 1009) per 10 ml of substrate buffer solution, immediately prior to use.

[4] = target: T2, α4β1 (Homo sapiens, UniProt P05556+P13612, DEL729-798); assay: α4β1-VCAM Competition ELISA; format: binding; details: Table 3-B, Selectivity (α4β1); range classes; read-out: α4β1 ELISA IC50
T2 construct: purchased R&D Systems 5668-A4
T2 sequence (P13612 34-977 limits assumed, stated change not applied): as the sequence (P13612 34-977 limits assumed) above
T2 sequence (P05556 21-728 limits assumed, stated change not applied): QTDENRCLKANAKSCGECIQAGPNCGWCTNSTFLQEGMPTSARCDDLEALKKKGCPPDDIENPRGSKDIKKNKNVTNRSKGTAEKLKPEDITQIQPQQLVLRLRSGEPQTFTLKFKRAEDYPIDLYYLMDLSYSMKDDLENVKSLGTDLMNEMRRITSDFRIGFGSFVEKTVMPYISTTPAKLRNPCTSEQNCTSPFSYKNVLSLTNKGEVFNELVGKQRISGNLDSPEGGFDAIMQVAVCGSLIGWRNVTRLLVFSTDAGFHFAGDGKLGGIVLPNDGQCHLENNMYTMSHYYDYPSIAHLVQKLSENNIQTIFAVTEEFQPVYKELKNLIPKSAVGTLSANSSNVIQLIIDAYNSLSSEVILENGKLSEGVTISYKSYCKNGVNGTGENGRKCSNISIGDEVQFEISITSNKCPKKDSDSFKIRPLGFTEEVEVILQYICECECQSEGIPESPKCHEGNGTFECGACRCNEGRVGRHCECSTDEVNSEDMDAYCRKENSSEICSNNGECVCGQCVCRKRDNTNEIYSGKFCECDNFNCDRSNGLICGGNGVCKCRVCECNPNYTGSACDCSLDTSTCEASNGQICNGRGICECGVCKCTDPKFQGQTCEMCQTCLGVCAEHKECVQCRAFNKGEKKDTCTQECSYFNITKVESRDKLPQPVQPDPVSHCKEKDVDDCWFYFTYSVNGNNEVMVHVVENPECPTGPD
Experimental: A Nunc MaxiSorp plate was coated with rh VCAM-1/CD106 Fc chimera (R&D #862-VC) at 400 ng/well in 50 ul per well in 1×PBS and incubated overnight at 4° C. The solution was removed by shaking and then blocked with 250 ul of 1% BSA in 1×PBS per well. The wells were then incubated at room temperature for 1 hr with shaking. Each well was then washed once with wash buffer (50 mM Tris-HCl pH7.6, 100 mM NaCL, 1 mM MnCl2 or MgCl2, 0.05% Tween-20). 25 ul of serial dilutions of peptides starting at 200 μM in assay buffer (Assay buffer: 50 mM Tris-HCl pH7.6, 100 mM NaCl, 1 mM MnCl2 or MgCl2, 0.05% Tween-20) was added to each well. Additionally, 25 ul of α4β1 (R&D Systems #5668-A4) was added to each well at a fixed concentration of 120 nM. The final peptide and α4β1 concentrations were 100 μM and 60 nM, respectively. The plates were then incubated at 37° C. for 2 hr. The solution was then removed by shaking, and each well was washed three times with wash buffer. 50 ul of 9F10 antibody at 4 ug/ml (purified mouse anti-human CD49d, BD Bioscience Cat#555502) was then added to each well, and the plate was incubated at room temperature for 1 hr with shaking. The solution was again removed by shaking, and each well was washed three times with wash buffer. 50 ul of peroxidase-conjugated AffiniPure Goat anti-mouse IgG (Jackson immune research cat #115-035-003) diluted in 1:5000 in assay buffer was added to each well. The plate was incubated at room temperature for 30 min with shaking. Each well was then washed 3 times with wash buffer. 100 ul of TMB was then added to each well and closely observe during developing time. The reaction was stepped with 2N H2SO4 and absorbance was read at 450 nm.

[5] = simulated intestinal fluid (SIF) with 1% porcine pancreatin
[6] = simulated intestinal fluid (SIF) with porcine pancreatin

CC(=O)N[C@@H]1C(=O)N(C)[C@@H](CCCNC(=N)N)C(=O)N[C@@H](CO)C(=O)N[C@@H](CC(=O)O)C(=O)N[C@@H]([C@@H](C)O)C(=O)N[C@@H](CC(C)C)C(=O)N[C@H](C(=O)N[C@@H](Cc2ccc3ccccc3c2)C(=O)N[C@H](CCC(=O)O)C(=O)N[C@H](CCCCNC(=O)COCC(=O)NCCCC[C@@H](NC(=O)[C@@H](CCC(=O)O)NC(=O)[C@H](Cc2ccc3ccccc3c2)NC(=O)[C@H]2NC(=O)[C@H](CC(C)C)NC(=O)[C@H]([C@@H](C)O)NC(=O)[C@H](CC(=O)O)NC(=O)[C@H](CO)NC(=O)[C@H](CCCNC(=N)N)N(C)C(=O)[C@@H](NC(C)=O)C(C)(C)SSC2(C)C)C(N)=O)C(N)=O)C(C)(C)SSC1(C)C [compound 29] (I: Ac-[Pen][NMeR]SDTL[Pen][2Nal][dE][dK]-NH2 / II: Ac-[Pen][NMeR]SDTL[Pen][2Nal][dE][dK]-NH2; disulfide I:1-I:7, II:1-II:7; linker I:10-II:10 via Diglycolyl)
IC50 [1]: 10 to 25 nM
half-life at 22 μM [2, 5]: > 3 h
IC50 [3]: < 10 nM

CC(=O)N[C@@H]1C(=O)N(C)[C@@H](CCCNC(=N)N)C(=O)N[C@@H](CO)C(=O)N[C@@H](CC(=O)O)C(=O)N[C@@H]([C@@H](C)O)C(=O)N[C@@H](CC(C)C)C(=O)N[C@H](C(=O)N[C@@H](Cc2c[nH]c3ccccc23)C(=O)NC2(C(=O)N[C@H](CCCCN)C(N)=O)Cc3ccccc3C2)C(C)(C)SSC1(C)C [compound 51] (Ac-[Pen][NMeR]SDTL[Pen]W[Aic][dK]-NH2; disulfide 1-7)
half-life at 22 μM [2, 5]: 3 h
IC50 [3]: 25 to 50 nM

CC(=O)N[C@@H]1C(=O)N(C)[C@@H](CCCNC(=N)N)C(=O)N[C@@H](CO)C(=O)N[C@@H](CC(=O)O)C(=O)N[C@@H]([C@@H](C)O)C(=O)N[C@@H](CC(C)C)C(=O)N[C@H](C(=O)N[C@@H](Cc2c[nH]c3ccccc23)C(=O)N[C@@H](CCC(=O)O)C(=O)N2CCC[C@H]2C(=O)N[C@H](CCCCN)C(N)=O)C(C)(C)SSC1(C)C [compound 49] (Ac-[Pen][NMeR]SDTL[Pen]WEP[dK]-NH2; disulfide 1-7)
half-life at 22 μM [2, 5]: > 3 h
IC50 [3]: 10 to 25 nM

CC(=O)N[C@@H]1C(=O)N(C)[C@@H](CCCNC(=N)N)C(=O)N[C@@H](CO)C(=O)N[C@@H](CC(=O)O)C(=O)N[C@@H]([C@@H](C)O)C(=O)N[C@@H](CC(C)C)C(=O)N[C@H](C(=O)N[C@@H](Cc2ccc(C(C)(C)C)cc2)C(=O)O)C(C)(C)SSC1(C)C [compound 151] (Ac-[Pen][NMeR]SDTL[Pen][Phe(4-tBu)]-OH; disulfide 1-7)
IC50 [1]: 50 to 100 nM
half-life at 22 μM [2, 5]: 3.12 h
IC50 [3]: 10 to 25 nM

CC(=O)N[C@@H]1C(=O)N(C)[C@@H](CCCNC(=N)N)C(=O)N[C@H](CC(=O)O)C(=O)N[C@@H](CC(=O)O)C(=O)N[C@@H]([C@@H](C)O)C(=O)N[C@@H](CC(C)C)C(=O)N[C@H](C(=O)N[C@@H](Cc2c[nH]c3ccccc23)C(=O)N[C@@H](CCC(=O)O)C(=O)N[C@H](CCCCN)C(N)=O)C(C)(C)SSC1(C)C [compound 48] (Ac-[Pen][NMeR][dD]DTL[Pen]WE[dK]-NH2; disulfide 1-7)
half-life at 22 μM [2, 5]: > 3 h
IC50 [3]: 1000 to 10000 nM

CC(C)C[C@@H]1NC(=O)[C@H]([C@@H](C)O)NC(=O)[C@H](CC(=O)O)NC(=O)[C@H](CO)NC(=O)[C@H](CCCNC(=N)N)N(C)C(=O)[C@@H](NC(=O)CCNC(=O)COCC(=O)NCCC(=O)N[C@@H]2C(=O)N(C)[C@@H](CCCNC(=N)N)C(=O)N[C@@H](CO)C(=O)N[C@@H](CC(=O)O)C(=O)N[C@@H]([C@@H](C)O)C(=O)N[C@@H](CC(C)C)C(=O)N[C@H](C(=O)N[C@@H](Cc3c[nH]c4ccccc34)C(=O)N[C@@H](CCC(=O)O)C(N)=O)C(C)(C)SSC2(C)C)C(C)(C)SSC(C)(C)[C@@H](C(=O)N[C@@H](Cc2c[nH]c3ccccc23)C(=O)N[C@@H](CCC(=O)O)C(N)=O)NC1=O [compound 54] (I: [Pen][NMeR]SDTL[Pen]WE-NH2 / II: [Pen][NMeR]SDTL[Pen]WE-NH2; disulfide I:1-I:7, II:1-II:7; linker I:N-II:N via X3)
IC50 [1]: 25 to 50 nM
half-life at 22 μM [2, 6]: 0.533 h
IC50 [4]: 100 to 500 nM

CC(=O)N[C@@H]1C(=O)N(C)[C@@H](CCCNC(=N)N)C(=O)N[C@@H](CO)C(=O)N[C@@H](CC(=O)O)C(=O)N[C@@H](CC(=O)O)C(=O)N[C@@H](CC(C)C)C(=O)N[C@H](C(=O)N[C@@H](Cc2c[nH]c3ccccc23)C(=O)N[C@@H](CCC(=O)O)C(=O)N[C@H](CCCCN)C(N)=O)C(C)(C)SSC1(C)C [compound 46] (Ac-[Pen][NMeR]SDDL[Pen]WE[dK]-NH2; disulfide 1-7)
half-life at 22 μM [2, 5]: > 3 h
IC50 [3]: 1000 to 10000 nM

CC(=O)N[C@@H]1C(=O)N(C)[C@@H](CCCNC(=N)N)C(=O)N[C@@H](CO)C(=O)N[C@@H](CC(=O)O)C(=O)N[C@@H]([C@@H](C)O)C(=O)N[C@@H](CC(C)C)C(=O)N[C@H](C(=O)N[C@@H](Cc2ccc3ccccc3c2)C(=O)N[C@@H](CCc2ccccc2)C(=O)N[C@H](CCCCN)C(N)=O)C(C)(C)SSC1(C)C [compound 50] (Ac-[Pen][NMeR]SDTL[Pen][2Nal][hPhe][dK]-NH2; disulfide 1-7)
half-life at 22 μM [2, 5]: 1.73 h
IC50 [3]: 10 to 25 nM

CC(C)C[C@@H]1NC(=O)[C@H]([C@@H](C)O)NC(=O)[C@H](CC(=O)O)NC(=O)[C@H](CO)NC(=O)[C@H](CCCNC(=N)N)N(C)C(=O)[C@@H](NC(=O)CCN)C(C)(C)SSC(C)(C)[C@@H](C(=O)N[C@@H](Cc2c[nH]c3ccccc23)C(=O)N[C@H](CCC(=O)O)C(N)=O)NC1=O [compound 53] (H-[βAla][Pen][NMeR]SDTL[Pen]W[dE]-NH2; disulfide 2-8)
half-life at 22 μM [2, 6]: > 3 h
IC50 [3]: 10 to 25 nM

CC(C)C[C@@H]1NC(=O)[C@H]([C@@H](C)O)NC(=O)[C@H](CC(=O)O)NC(=O)[C@H](CO)NC(=O)[C@H](CCCNC(=N)N)N(C)C(=O)[C@@H](NC(=O)CCN)C(C)(C)SSC(C)(C)[C@@H](C(=O)N[C@@H](Cc2c[nH]c3ccccc23)C(=O)N[C@@H](CCC(=O)O)C(N)=O)NC1=O [compound 52] (H-[βAla][Pen][NMeR]SDTL[Pen]WE-NH2; disulfide 2-8)
IC50 [1]: 100 to 500 nM
half-life at 22 μM [2, 6]: 1.95 h
IC50 [3]: 10 to 25 nM
